This note sets out measurements from patent US20110256579A1, “Method for Verifying and/or Identifying Hormonally Effective Substances” (TECHNISCHE UNIVERSITAET DRESDEN, priority 2008, published 2011).

This experiment concerns surface receptors of the a-yeast strain. Nature of the experiment: Shmoo effect positive control with purified α-factor. The experiment is classed as cell-based, Saccharomyces cerevisiae. Particulars: BY4741 MATa p423GPD-AR1, p426PGK-MFα1; purified α-factor added. The protocol: The recognition of the α-factor (yeast pheromone) by surface receptors effects inter alia a directed growth (shmoo effect) of the yeast cells toward the source of the pheromone. Under natural conditions this serves for subsequent fusion with the yeast cell of the opposite mating type.
To the positive control purified α-factor is added. […] Based on this control, the androgen-independent induction of the yeast cells can be checked.

For the substance α-factor, the “directed growth (shmoo effect) of the yeast cells” value was “Directed growth of the yeast cells is observed”.
